Where “and” joins values, the source holds several entries; their conditions need not be identical. Equal values may be shown once. Inconclusive results and toxic doses are left out. The calls were made as follows: active = survival T/C of 150% or more; inactive = T/C below 125% in these data.
Tested on: P388 leukemia ip, CD2F1 mice, survival T/C
Assay: NCI In Vivo Anticancer Drug Screen. Data for tumor model P388 Leukemia (intraperitoneal) in CD2F1 (CDF1) mice
Details: endpoint: median survival time, higher = longer survival
Outline: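 Mice carrying the transplanted tumor received test compound or vehicle. Survival was recorded in each group, and the value is the treated-group measurement divided by that of the vehicle-treated control group.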

[1] = dose: 1.25 mg/kg/injection, schedule: Q01DX009 (ip), vehicle: Klucel (hydroxypropylcellulose) (HPC)
[2] = dose: 2.5 mg/kg/injection, schedule: Q01DX009 (ip), vehicle: Klucel (hydroxypropylcellulose) (HPC)
[3] = dose: 10.0 mg/kg/injection, schedule: Q01DX009 (ip), vehicle: Klucel (hydroxypropylcellulose) (HPC)
[4] = dose: 50.0 mg/kg/injection, schedule: Q01DX005 (ip), vehicle: Klucel (hydroxypropylcellulose) (HPC)
[5] = dose: 100.0 mg/kg/injection, schedule: Q01DX005 (ip), vehicle: Klucel (hydroxypropylcellulose) (HPC)
[6] = dose: 50.0 mg/kg/injection, schedule: Q04DX003 (ip), vehicle: Klucel (hydroxypropylcellulose) (HPC)
[7] = dose: 25.0 mg/kg/injection, schedule: Q01DX009 (ip), vehicle: saline with Tween-80
[8] = dose: 50.0 mg/kg/injection, schedule: Q01DX005 (ip), vehicle: saline with Tween-80
[9] = dose: 200.0 mg/kg/injection, schedule: Q01DX005 (ip), vehicle: saline with Tween-80
[10] = dose: 100.0 mg/kg/injection, schedule: Q04DX003 (ip), vehicle: Klucel (hydroxypropylcellulose) (HPC)
[11] = dose: 200.0 mg/kg/injection, schedule: Q04DX003 (ip), vehicle: Klucel (hydroxypropylcellulose) (HPC)
[12] = dose: 100.0 mg/kg/injection, schedule: Q01DX005 (ip), vehicle: saline with Tween-80

Measured: T/C

C=C(C)/C([O-])=N/[N+](C)(C)CC(O)CCCCCCCCCCCC (stereo unspecified)
inactive: [1] 104 % of control | dose: 2.5 mg/kg/injection, schedule: Q01DX005 (ip), vehicle: Klucel (hydroxypropylcellulose) (HPC) 100 % of control | [2] 96 % of control | dose: 5.0 mg/kg/injection, schedule: Q01DX005 (ip), vehicle: Klucel (hydroxypropylcellulose) (HPC) 101 % of control | dose: 10.0 mg/kg/injection, schedule: Q01DX005 (ip), vehicle: Klucel (hydroxypropylcellulose) (HPC) 100 % of control | [3] 91 % of control | dose: 20.0 mg/kg/injection, schedule: Q01DX005 (ip), vehicle: Klucel (hydroxypropylcellulose) (HPC) 101 % of control | dose: 40.0 mg/kg/injection, schedule: Q01DX005 (ip), vehicle: Klucel (hydroxypropylcellulose) (HPC) 92 % of control

CC(=O)Nc1ccc(S(=O)(=O)NC2C(O)OC(CO)C(O)C2O)cc1 (stereo unspecified)
inactive: dose: 50.0 mg/kg/injection, schedule: Q01DX005 (ip), vehicle: saline 95 % of control | dose: 100.0 mg/kg/injection, schedule: Q01DX005 (ip), vehicle: saline 105 % of control | dose: 200.0 mg/kg/injection, schedule: Q01DX005 (ip), vehicle: saline 97 % of control

Cc1cccc(C(O)(c2cccc(C)c2)C2(O)CCN(C)CC2)c1
inactive: dose: 25.0 mg/kg/injection, schedule: Q01DX005 (ip), vehicle: Klucel (hydroxypropylcellulose) (HPC) 98 % of control | [4] 98 % of control | [5] 102 % of control

CC(C)(C)C#CP(C#CC(C)(C)C)C#CC(C)(C)C
inactive: dose: 12.5 mg/kg/injection, schedule: Q04DX003 (ip), vehicle: Klucel (hydroxypropylcellulose) (HPC) 108 % of control | dose: 25.0 mg/kg/injection, schedule: Q04DX003 (ip), vehicle: Klucel (hydroxypropylcellulose) (HPC) 106 % of control | [6] 111 % of control

COc1cc2c(cc1OC)C1CC3(CCN1CC2)CC(=O)OC3=O (stereo unspecified)
inactive: dose: 50.0 mg/kg/injection, schedule: Q01DX005 (ip), vehicle: DMSO 108 % of control | dose: 100.0 mg/kg/injection, schedule: Q01DX005 (ip), vehicle: DMSO 120 % of control | dose: 200.0 mg/kg/injection, schedule: Q01DX005 (ip), vehicle: DMSO 119 % of control

C=C(COC(C)=O)[C@@H](C)C(=O)C1OCOC(C2CC(=O)NC(=O)C2)[C@@H]1OC(C)=O (stereo partly specified)
inactive: dose: 0.01 mg/kg/injection, schedule: Q01DX009 (ip), vehicle: distilled water + alcohol 98 % of control | dose: 0.03 mg/kg/injection, schedule: Q01DX009 (ip), vehicle: distilled water + alcohol 102 % of control | dose: 0.06 mg/kg/injection, schedule: Q01DX009 (ip), vehicle: distilled water + alcohol 102 % of control | dose: 0.12 mg/kg/injection, schedule: Q01DX009 (ip), vehicle: distilled water + alcohol 102 % of control

CCOC(=O)C[N+]12CCC34c5ccccc5N5C(=O)CC6OCC=C(C1)C(CC32)C6C54 (stereo unspecified)
inactive: dose: 12.5 mg/kg/injection, schedule: Q01DX009 (ip), vehicle: saline with Tween-80 113 % of control | [7] 106 % of control

CCN(CC)CCNc1cc(Nc2ccc([N+](=O)[O-])cc2)ccc1OC
inactive: dose: 12.5 mg/kg/injection, schedule: Q01DX005 (ip), vehicle: saline with Tween-80 108 % of control | dose: 25.0 mg/kg/injection, schedule: Q01DX005 (ip), vehicle: saline with Tween-80 106 % of control | [8] 99 % of control | [9] 87 % of control

O=C1OC2(O)c3ccccc3C(=O)N2N2CCCC12 (stereo unspecified)
inactive: dose: 60.0 mg/kg/injection, schedule: Q01DX005 (ip), vehicle: Klucel (hydroxypropylcellulose) (HPC) 109 % of control | dose: 120.0 mg/kg/injection, schedule: Q01DX005 (ip), vehicle: Klucel (hydroxypropylcellulose) (HPC) 98 % of control | dose: 240.0 mg/kg/injection, schedule: Q01DX005 (ip), vehicle: Klucel (hydroxypropylcellulose) (HPC) 98 % of control

CC(C)c1ccc2c[n+]3ccccc3cc2c1
inactive: dose: 6.25 mg/kg/injection, schedule: Q01DX005 (ip), vehicle: Klucel (hydroxypropylcellulose) (HPC) 100 % of control and 108 % of control | dose: 12.5 mg/kg/injection, schedule: Q01DX005 (ip), vehicle: Klucel (hydroxypropylcellulose) (HPC) 106 % of control and 112 % of control

COc1cc2c(c(OC(C)=O)c1OC(C)=O)-c1ccc(SC)c(=O)cc1C(NC(C)=O)CC2 (stereo unspecified)
inactive: [1] 110 % of control | [2] 105 % of control | dose: 5.0 mg/kg/injection, schedule: Q01DX009 (ip), vehicle: Klucel (hydroxypropylcellulose) (HPC) 93 % of control | dose: 9.0 mg/kg/injection, schedule: Q01DX009 (ip), vehicle: Klucel (hydroxypropylcellulose) (HPC) 100 % of control | [3] 105 % of control | dose: 18.0 mg/kg/injection, schedule: Q01DX009 (ip), vehicle: Klucel (hydroxypropylcellulose) (HPC) 89 % of control | dose: 36.0 mg/kg/injection, schedule: Q01DX009 (ip), vehicle: Klucel (hydroxypropylcellulose) (HPC) 100 % of control

[Co+2].[O-]c1cc2ccccc2cc1/C=N/c1ccccn1.[O-]c1cc2ccccc2cc1/C=N/c1ccccn1.[OH3+].[OH3+]
inactive: dose: 12.5 mg/kg/injection, schedule: Q04DX002 (ip), vehicle: saline with Tween-80 93 % of control | dose: 25.0 mg/kg/injection, schedule: Q04DX002 (ip), vehicle: saline with Tween-80 91 % of control | dose: 50.0 mg/kg/injection, schedule: Q04DX002 (ip), vehicle: saline with Tween-80 88 % of control

CCN(CC)C1CS(=O)(=O)OC2=C1Cc1ccccc1CC2 (stereo unspecified)
inactive: [6] 100 % of control | [10] 99 % of control | [11] 105 % of control

CCOC(=O)CC1(O)CS/C(=C(\C#N)C(=O)OCC)N1c1ccccc1 (stereo unspecified)
inactive: [8] 96 % of control | [12] 100 % of control | [9] 96 % of control

COc1ccc(C2OC3=C(Nc4ccc([N+](=O)[O-])cc4N3)C2=O)c(OC)c1 (stereo unspecified)
inactive: [4] 93 % of control | [5] 101 % of control | dose: 200.0 mg/kg/injection, schedule: Q01DX005 (ip), vehicle: Klucel (hydroxypropylcellulose) (HPC) 101 % of control

CC(=O)OC1C=CC(=O)C1(O)CO (stereo unspecified)
inactive: dose: 2.0 mg/kg/injection, schedule: Q01DX009 (ip), vehicle: saline 97 % of control | dose: 4.0 mg/kg/injection, schedule: Q01DX009 (ip), vehicle: saline 98 % of control | dose: 8.0 mg/kg/injection, schedule: Q01DX009 (ip), vehicle: saline 118 % of control | dose: 16.0 mg/kg/injection, schedule: Q01DX009 (ip), vehicle: saline 116 % of control

O=C(O)CC(O)CCO (stereo unspecified)
inactive: dose: 100.0 mg/kg/injection, schedule: Q01DX001 (ip), vehicle: saline 104 % of control | dose: 200.0 mg/kg/injection, schedule: Q01DX001 (ip), vehicle: saline 103 % of control | dose: 400.0 mg/kg/injection, schedule: Q01DX001 (ip), vehicle: saline 101 % of control

O=C(Nc1cccc([N+](=O)[O-])c1)OCC#CCCl
inactive: dose: 50.0 mg/kg/injection, schedule: Q01DX005 (ip), vehicle: saline + Tween-80 + alcohol 102 % of control | dose: 100.0 mg/kg/injection, schedule: Q01DX005 (ip), vehicle: saline + Tween-80 + alcohol 101 % of control | dose: 200.0 mg/kg/injection, schedule: Q01DX005 (ip), vehicle: saline + Tween-80 + alcohol 100 % of control

CC(SC(C)(C)C)C(=O)SC(C)(C)C (stereo unspecified)
inactive: [10] 102 % of control | [11] 103 % of control | dose: 400.0 mg/kg/injection, schedule: Q04DX003 (ip), vehicle: Klucel (hydroxypropylcellulose) (HPC) 105 % of control

Nc1nnnn1CCCl
inactive: [8] 94 % of control | [12] 103 % of control | [9] 106 % of control

Clc1ccc(-c2cc(-c3cc(-c4ccc(Cl)cc4Cl)n[nH]3)[nH]n2)c(Cl)c1
inactive: dose: 60.0 mg/kg/injection, schedule: Q01DX005 (ip), vehicle: Klucel + Tween-80 100 % of control | dose: 120.0 mg/kg/injection, schedule: Q01DX005 (ip), vehicle: Klucel + Tween-80 98 % of control | dose: 240.0 mg/kg/injection, schedule: Q01DX005 (ip), vehicle: Klucel + Tween-80 90 % of control

CN=C(NC)c1cccc(NC(=O)/C=C\c2ccc(/C=C/C(=O)Nc3cccc(C(=NC)NC)c3)cc2)c1
inactive: dose: 1.56 mg/kg/injection, schedule: Q01DX005 (ip), vehicle: saline with Tween-80 121 % of control

O=C(O)C(=O)O.O=N[O-].[Co+3].[NH-]CC[N-]CC[NH-]
inactive: [7] 108 % of control | dose: 50.0 mg/kg/injection, schedule: Q01DX009 (ip), vehicle: saline with Tween-80 108 % of control

Reference: PubChem BioAssay AID330 (DTP/NCI, 2004)
